In patent publication US20260159499A1, “COMPOUND AS FAK INHIBITOR AND USE THEREOF” (WIGEN BIOMEDICINE TECHNOLOGY (SHANGHAI) CO., LTD., priority 2021, published 2026):

Key:
FAK recombinant protein = FAK recombinant protein (Homo sapiens, UniProt Q05397); test: Inhibitory activity against FAK enzyme; assay type: biochemical; conditions: TK substrate, ATP
Method: The compound serially diluted with DMSO and a FAK recombinant protein were mixed, and the mixture was left to stand at room temperature for 10 min. A biotin-labeled TK substrate (TK) and ATP were then added. […] After the mixture was incubated at room temperature for 1 h, the fluorescence intensity at 615 nm and 665 nm was measured. The ratio of the fluorescence intensity at 665 nm and 615 nm was calculated. The inhibition percentages and IC50 of the compounds were calculated compared to the DMSO control group.

PC3 cells [1] = test: PC3 cell proliferation, 2D activity detection; assay type: cell-based, human; conditions: Homo sapiens, PC-3, PC3, 2D, 72 h, read-out: 2D IC50 against PC3 cells
Method: 2D activity detection: 1200 PC3 cells were seeded in a 96-well plate. After overnight adherence culture, the compound serially diluted was added. 72 h after addition, Cell Titer-Lumi (Beyotime C0068XL) was added to measure the ATP content in the cells. The growth of the cells was evaluated, and IC50 of the compounds against cell growth was calculated.

PC3 cells [2] = test: PC3 cell proliferation, 3D activity detection; assay type: cell-based, human; conditions: Homo sapiens, PC-3, 336 h, PC3, 3D culture, 14 days, read-out: 3D IC50 against PC3 cells
Method: 3D activity detection: PC3 cells were seeded in a 96-well plate at 1200 cells/well, and 3D culture was performed. 14 days after the compound serially diluted was added, the growth of the cells was determined. The inhibition percentage and IC50 of the compound were calculated compared to the DMSO control group.

PC3 cells [3] = test: Inhibition of PC3 cell adherence; assay type: cell-based; conditions: Homo sapiens, PC-3; PC3, 4 h treatment; read-out: Inhibitory activity against PC-3 cell adherence IC50
Method: PC3 cells were added at 8000 cells/well. 4 h after the cells were treated with the compound, the number of adherent cells was counted. The inhibition percentages and IC50 of the compounds were calculated compared to the DMSO group.

[4] = In vivo pharmacokinetic experiment in mice; design: species or system CD-1 female mice; conditions: female, mouse, plasma, CD-1 mice
Method: On the day of the experiment, animals in the intravenous group were administered the corresponding compound by single injection via the tail vein at an administration volume of 10 mL/kg, and animals in the oral group were administered the corresponding compound by single intragastric injection at an administration volume of 10 mL/kg. The animals were weighed before administration, and the administration volume was calculated according to the body weight. […] About 200 μL of whole blood was collected through the orbital venous plexus at each time point and used to prepare plasma for concentration determination by high-performance liquid chromatography-tandem mass spectrometry (LC-MS/MS). The plasma concentrations were processed using a non-compartmental model of Winnolin pharmacokinetic software, and the pharmacokinetic parameters were calculated using a linear-log trapezoidal method.

[5] = test system: Human prostatic cancer PC3 cells; test: In vivo efficacy test in PC-3 model; design: species or system BALB/c nude mice; conditions: 25 mg/kg, PO, QD (21 days)
Method: Female BALB/c nude mice (aged 6 weeks, 18-22 g) were provided by Vital River Laboratory Animal Technology Co., Ltd. (China) and used one week after quarantine and acclimation. All animals were kept in a room at 23±2° C. with a relative humidity of 50±5%, artificial lighting was provided from 08:00 to 20:00 every day, and the air was exchanged 13-18 times per hour.
After being subcultured, the cells were collected when they reached the desired amount. 1×10^7 PC3 cells were injected into the left dorsal side of each nude mouse, and the animals were randomly grouped for administration after tumors grew to 100-200 mm^3. The mice in the solvent control group were intragastrically administered 0.5% MC-Tween-80 twice a day; the mice in the compound groups were intragastrically administered 0.5% MC-Tween-80 suspension once a day. On Tuesday and Thursday each week, tumor volumes and body weight of the mice were measured, and the nude mice were sacrificed on day 21 after the administration.
(§1) The toxicity of the compounds was evaluated according to the body weight of the mice.

[6] = test system: Mouse colon cancer MC38 cells; test: In vivo efficacy experiment in MC38 model; design: species or system BALB/c mice; conditions: single drug 50 mg/kg, PO, QD (21 days)
Method: The BALB/c mice were subcutaneously injected with 1×10^6 MC38 cells on the right side to form tumors. […] The administration was then started. Tumor volumes were measured with a caliper on day 3, day 7, day 10, day 14, day 17 and day 21 after the administration.

[7] = test system: Human pancreatic cancer Mia PaCa-2 cells; test: In vivo efficacy test in MiaPaCa-2 model; conditions: 25 mg/kg, PO, QD (21 days)
Method: After being subcultured, the cells were collected when they reached the desired amount. 1×10^7 Mia PaCa-2 cells were injected into the left dorsal side of each nude mouse, and the animals were randomly grouped for administration after tumors grew to 100-200 mm^3. The mice in the solvent control group were intragastrically administered 0.5% MC-Tween-80 twice a day; the mice in the compound groups were intragastrically administered 0.5% MC-Tween-80 suspension once a day. On Tuesday and Thursday each week, tumor volumes and body weight of the mice were measured, and the nude mice were sacrificed on day 21 after the administration.
as §1

Sequence of FAK recombinant protein (Q05397 whole entry, species assumed): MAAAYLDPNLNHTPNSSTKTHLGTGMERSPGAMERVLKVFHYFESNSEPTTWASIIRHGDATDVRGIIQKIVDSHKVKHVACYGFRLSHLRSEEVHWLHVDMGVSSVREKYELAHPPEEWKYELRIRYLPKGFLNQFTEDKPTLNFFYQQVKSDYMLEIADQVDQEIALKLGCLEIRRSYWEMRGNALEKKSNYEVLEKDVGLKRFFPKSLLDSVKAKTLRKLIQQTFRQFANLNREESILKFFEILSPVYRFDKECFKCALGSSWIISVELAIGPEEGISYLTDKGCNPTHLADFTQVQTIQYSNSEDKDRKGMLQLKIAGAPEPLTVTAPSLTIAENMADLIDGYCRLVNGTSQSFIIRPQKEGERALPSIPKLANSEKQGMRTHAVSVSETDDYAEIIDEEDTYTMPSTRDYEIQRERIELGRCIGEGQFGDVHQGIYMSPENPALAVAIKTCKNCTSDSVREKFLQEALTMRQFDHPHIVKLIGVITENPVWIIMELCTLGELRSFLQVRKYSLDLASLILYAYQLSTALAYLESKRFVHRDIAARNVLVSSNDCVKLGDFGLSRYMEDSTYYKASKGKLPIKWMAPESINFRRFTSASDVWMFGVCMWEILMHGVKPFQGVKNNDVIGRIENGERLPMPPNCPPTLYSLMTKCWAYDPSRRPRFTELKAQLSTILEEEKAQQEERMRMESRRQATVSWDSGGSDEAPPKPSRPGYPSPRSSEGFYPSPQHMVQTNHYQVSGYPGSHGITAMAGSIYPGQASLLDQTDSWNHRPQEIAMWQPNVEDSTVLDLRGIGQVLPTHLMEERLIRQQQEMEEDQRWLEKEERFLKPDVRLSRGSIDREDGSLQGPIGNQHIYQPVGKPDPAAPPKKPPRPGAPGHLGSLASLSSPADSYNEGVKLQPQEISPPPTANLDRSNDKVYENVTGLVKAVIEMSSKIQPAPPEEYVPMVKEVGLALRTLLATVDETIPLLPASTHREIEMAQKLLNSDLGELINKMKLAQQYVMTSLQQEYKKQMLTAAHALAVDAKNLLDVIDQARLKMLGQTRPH

Structure (SMILES) | IC50 (FAK recombinant protein) [nM] | IC50 (PC3 cells [1]; class symbol) [nM] | IC50 (PC3 cells [2]; class symbol) [nM] | IC50 (PC3 cells [3]) [nM] | IC50 (PC3 cells [2]; numeric (mean where marked *)) [nM] | also measured
COc1cc(N2CC3(CCN(C)C3)OC2=O)c(F)cc1Nc1ncc(C(F)(F)F)c(Oc2cccc3c2C(=O)N(C)C3)n1 (centres unmarked) [Compound 64] | < 10 | > 2000 | 5 to 50 | 3.33 | – | –
COc1cc(C(=O)NC2CCC3(CC2)CN(C)C3)c(F)cc1Nc1ncc(C(F)(F)F)c(Oc2cccc3c2C(=O)N(C)C3)n1 [Compound 20] | < 10 | – | – | – | 4.23 | IC50 (PC3 cells [1]; numeric): > 10000 nM; AUC(0-t) ([4]; injection (IV) 2 mg/kg): 622 ng·h/mL; clearance ([4]; injection (IV) 2 mg/kg): 26.8 mL/min/kg; half-life ([4]; injection (IV) 2 mg/kg): 3.46 h; Vd ([4]; injection (IV) 2 mg/kg, read-out: Vdss): 4.99 L/kg; AUC(0-t) ([4]; oral administration 10 mg/kg): 934 ng·h/mL; Cmax ([4]; oral administration 10 mg/kg): 190 ng/mL; Tmax ([4]; oral administration 10 mg/kg): 2 h; half-life ([4]; oral administration 10 mg/kg): 1.97 h; bioavailability ([4]; oral administration 10 mg/kg vs injection): 30%
COc1cc(N2CC3(CCN(C)C3)OCC2=O)c(F)cc1Nc1ncc(C(F)(F)F)c(Oc2cccc3c2C(=O)N(C)C3)n1 (centres unmarked) [Compound 66] | < 10 | > 2000 | > 50 | 7.01 | – | –
COc1cc(C(=O)N2CCC3(CCCN(C)C3)C2)c(F)cc1Nc1ncc(C(F)(F)F)c(Oc2cccc3c2C(=O)N(C)C3)n1 (centres unmarked) [Compound 40] | < 10 | > 2000 | 5 to 50 | – | – | –
COc1cc(C(=O)NC2CC3(CCN(C)CC3)C2)c(F)cc1Nc1ncc(C(F)(F)F)c(Oc2cccc3c2C(=O)N(C)C3C)n1 (centres unmarked) [Compound 70, 4-((4-((1,2-dimethyl-3-oxoisoindol-4-yl)oxy)-5-(trifluoromethyl)pyrimidin-2-yl)amino)-2-fluoro-5-methoxy-N-(7-methyl-7-azaspiro[3.5]nonan-2-yl)benzamide] | < 10 | > 2000 | < 5 | – | – | –
COc1cc(C(=O)NC2CCC3(CC2)CN(C)C3)c(F)cc1Nc1ncc(C(F)(F)F)c(Oc2cccc3c2C(=O)N(C)C3(C)C)n1 [Compound 77] | < 10 | > 2000 | 5 to 50 | – | – | –
COc1cc(C(=O)NC2CC3(CCN(C)CC3)C2)c(F)cc1Nc1ncc(C(F)(F)F)c(Cc2cccc3c2C(=O)CC3)n1 [Compound 84] | < 10 | > 2000 | 5 to 50 | – | – | –
COc1cc(C(=O)NC2CCC3(CC2)CCN(C)CC3)c(F)cc1Nc1ncc(C(F)(F)F)c(Cc2cccc3c2C(=O)N(C)C3)n1 [Compound 54] | 10 to 50 | > 2000 | 5 to 50 | – | – | –
COc1cc(C(=O)NC2CCn3cnnc3C2)c(F)cc1Nc1ncc(C(F)(F)F)c(Oc2cccc3c2C(=O)N(C)C3)n1 (centres unmarked) [Compound 33] | < 10 | > 2000 | 5 to 50 | – | – | –
COc1cc(C(=O)NC2CC3(CCN(C)CC3)C2)c(F)cc1Nc1ncc(C(F)(F)F)c(Oc2cccc3c2C(=O)CC3)n1 [Compound 82] | < 10 | > 2000 | 5 to 50 | – | – | –
COc1cc(N2CC3(CCNCC3)C2)c(F)cc1Nc1ncc(C(F)(F)F)c(Oc2cccc3c2C(=O)N(C)C3)n1 [Compound 107, 7-((2-((5-fluoro-2-methoxy-4-(2,7-diazaspiro[3.5]non-2-yl)phenyl)amino)-5-(trifluoromethyl)pyrimidin-4-yl)oxy)-2-methylisoindolin-1-one] | < 10 | > 2000 | < 5 | – | – | –
CNC(=O)c1ccccc1Oc1nc(Nc2cc(F)c(C(=O)NC3CC4(CCN(C)CC4)CO3)cc2OC)ncc1C(F)(F)F (centres unmarked) [Compound 3] | < 10 | > 2000 | 5 to 50 | – | – | –

Second part, led by results:

IC50 (FAK recombinant protein) [nM] | IC50 (PC3 cells [1]; class symbol) [nM] | IC50 (PC3 cells [2]; class symbol) [nM] | IC50 (PC3 cells [3]) [nM] | IC50 (PC3 cells [2]; numeric (mean where marked *)) [nM] | Structure (SMILES) | also measured
< 10 | > 2000 | < 5 | 2.88 | – | COc1cc(N2CC3(CCN(C)CC3)CC2=O)c(F)cc1Nc1ncc(C(F)(F)F)c(Oc2cccc3c2C(=O)N(C)C3)n1 [Compound 62] | –
< 10 | – | – | 3.05 | 0.83 | COc1cc(N2CCC3(CC2)CN(C)C3)ccc1Nc1ncc(C(F)(F)F)c(Oc2cccc3c2C(=O)N(C)C3)n1 [Compound 92] | IC50 (PC3 cells [1]; numeric): > 10000 nM
< 10 | > 2000 | < 5 | 3.01 | – | COc1cc(N2CC3(CCNCC3)C2)ccc1Nc1ncc(C(F)(F)F)c(Oc2cccc3c2C(=O)N(C)C3)n1 [Compound 102] | –
< 10 | > 2000 | < 5 | 2.58 | – | COc1cc(N2CCC3(CCN(C)CC3)CC2)ccc1Nc1ncc(C(F)(F)F)c(Oc2cccc3c2C(=O)N(C)C3)n1 [Compound 94] | –
< 10 | > 2000 | – | 86 | 41.3 | COc1cc(C(=O)N2CC3(CCN(C)CC3)C2)c(F)cc1Nc1ncc(C(F)(F)F)c(Oc2cccc3c2C(=O)N(C)C3)n1 [Compound 34] | –
< 10 | > 2000 | < 5 | 2.63 | – | COc1cc(N2CC3(CCN(C)CC3)C2)ccc1Nc1ncc([N+](=O)[O-])c(Oc2cccc3c2C(=O)N(C)C3)n1 [Compound 114] | –
< 10 | > 2000 | – | 1.62 | 1.78 | COc1cc(N2CC3(CCN(C)CC3)C2)ccc1Nc1ncc(Cl)c(Oc2cccc3c2C(=O)N(C)C3)n1 [Compound 111] | Change in body weight [5]: −1.4%; TGI (%) [5]: 87.4%; Change in body weight [6]: +21.07%; TGI (%) [6]: 47.67%; Change in body weight [7]: +6.08%; TGI (%) [7]: 82.32%
< 10 | > 2000 | – | 2.26 | 4.86 | COc1cc(N2CC3(CCN(C)CC3)C2)ccc1Nc1ncc(C(F)(F)F)c(Oc2cccc3c2C(=O)N(C)C3(C)C)n1 [Compound 101] | –
< 10 | > 2000 | – | 3.56 | 1.58 | COc1cc(N2CC3(CCN(C)CC3)C2)ccc1Nc1ncc(C#N)c(Oc2cccc3c2C(=O)N(C)C3)n1 [Compound 113] | –
< 10 | > 2000 | < 5 | – | – | COc1cc(N2CCC3(CCN(C)C3)C2)ccc1Nc1ncc(C(F)(F)F)c(Oc2cccc3c2C(=O)N(C)C3)n1 (centres unmarked) [Compound 98] | –
< 10 | > 2000 | 5 to 50 | – | – | COc1cc(C(=O)N2CCC3(CCN(C)CC3)C2)c(F)cc1Nc1ncc(C(F)(F)F)c(Oc2cccc3c2C(=O)N(C)C3)n1 [Compound 39] | –
< 10 | > 2000 | < 5 | – | – | COc1cc(N2CCC3(CC2)CN(C)C3)c(F)cc1Nc1ncc(C(F)(F)F)c(Oc2cccc3c2C(=O)N(C)C3)n1 [Compound 91] | –
10 to 50 | – | – | 8.5 | 1.32 | COc1cc(C(=O)NC2CCC23CCN(C)CC3)c(F)cc1Nc1ncc(C(F)(F)F)c(Oc2cccc3c2C(=O)N(C)C3)n1 (centres unmarked) [Compound 21] | IC50 (PC3 cells [1]; numeric): > 10000 nM
< 10 | > 2000 | – | 0.93 | 0.66 | COc1cc(N2CC3(CCN(C)CC3)C2)ccc1Nc1ncc(Br)c(Oc2cccc3c2C(=O)N(C)C3)n1 [Compound 112] | –
< 10 | > 2000 | – | 1.33 | 2.22 | COc1cc(N2CC3(CCN(C)CC3)C2)ccc1Nc1ncc(C(F)(F)F)c(Oc2cccc3c2C(=O)N(C)C3C)n1 (centres unmarked) [Compound 100] | –
